The first experiment deals with T1, F508del (Homo sapiens, UniProt P13569, DEL508-508).
T1 construct: expressed in transfected cells
T1 sequence (P13569 with tags, fused parts or gaps DEL508-508): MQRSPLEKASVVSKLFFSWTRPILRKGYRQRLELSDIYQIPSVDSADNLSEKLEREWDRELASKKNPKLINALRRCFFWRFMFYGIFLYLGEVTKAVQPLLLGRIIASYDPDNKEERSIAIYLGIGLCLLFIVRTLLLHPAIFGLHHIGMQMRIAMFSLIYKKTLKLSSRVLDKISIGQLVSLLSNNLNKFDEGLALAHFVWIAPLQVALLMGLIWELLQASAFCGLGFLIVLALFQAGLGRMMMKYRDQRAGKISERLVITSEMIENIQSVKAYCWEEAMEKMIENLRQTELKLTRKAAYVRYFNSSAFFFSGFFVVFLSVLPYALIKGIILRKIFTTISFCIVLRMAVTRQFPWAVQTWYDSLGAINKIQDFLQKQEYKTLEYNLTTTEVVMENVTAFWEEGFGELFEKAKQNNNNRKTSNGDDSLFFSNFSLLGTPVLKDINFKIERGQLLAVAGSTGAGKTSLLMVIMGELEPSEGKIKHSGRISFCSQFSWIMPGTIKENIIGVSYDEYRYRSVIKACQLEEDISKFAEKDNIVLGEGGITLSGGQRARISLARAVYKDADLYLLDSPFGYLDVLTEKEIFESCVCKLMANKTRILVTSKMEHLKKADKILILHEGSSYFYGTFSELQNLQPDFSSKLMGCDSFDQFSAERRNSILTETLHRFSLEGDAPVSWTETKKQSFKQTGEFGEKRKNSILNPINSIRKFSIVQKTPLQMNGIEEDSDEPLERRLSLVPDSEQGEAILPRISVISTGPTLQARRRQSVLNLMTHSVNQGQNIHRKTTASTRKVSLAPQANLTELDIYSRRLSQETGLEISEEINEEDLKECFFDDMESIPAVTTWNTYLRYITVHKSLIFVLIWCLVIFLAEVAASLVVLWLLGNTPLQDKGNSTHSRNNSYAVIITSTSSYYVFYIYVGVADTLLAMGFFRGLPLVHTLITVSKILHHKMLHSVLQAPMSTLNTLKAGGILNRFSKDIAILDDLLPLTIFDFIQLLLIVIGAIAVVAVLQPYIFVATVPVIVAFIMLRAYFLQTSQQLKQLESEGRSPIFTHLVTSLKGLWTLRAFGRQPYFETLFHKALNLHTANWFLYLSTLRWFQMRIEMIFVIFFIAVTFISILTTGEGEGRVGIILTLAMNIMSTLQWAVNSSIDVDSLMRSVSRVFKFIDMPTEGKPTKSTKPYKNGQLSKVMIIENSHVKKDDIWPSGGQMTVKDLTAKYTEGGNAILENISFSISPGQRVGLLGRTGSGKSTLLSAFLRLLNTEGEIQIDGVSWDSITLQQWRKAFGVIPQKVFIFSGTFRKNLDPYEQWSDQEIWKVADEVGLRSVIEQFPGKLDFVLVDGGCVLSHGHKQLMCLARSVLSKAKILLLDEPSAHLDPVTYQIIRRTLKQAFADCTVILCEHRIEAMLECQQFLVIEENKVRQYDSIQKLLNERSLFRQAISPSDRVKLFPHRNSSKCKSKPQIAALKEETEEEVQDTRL
Nature of the experiment: Protocol 2: FRET membrane potential optical assay (VIPR), identification of correction compounds. In kind it is cell-based. Conditions: F508del CFTR modulator activity; compounds of Table 1; read-out: EC30. An outline of the steps: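 FRET read-out (CC2-DMPE donor, DiSBAC2(3) voltage-sensitive acceptor) of membrane depolarization on VIPR II. Corrector candidates incubated 16 hrs at 37° C. with NIH3T3 cells expressing F508del; temperature correction at 27° C. as positive control; stimulation by 10 μM forskolin, 20 μM genistein, chloride-free gluconate bath.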
Take `CC(C)COc1cc(F)cc(-c2ccc(C(=O)NS(=O)(=O)c3cccc(N)n3)c(N3CCCC(C)(C)CC3)n2)c1` [Compound 2171, N-[(6-amino-2-pyridyl)sulfonyl]-2-(4,4-dimethylazepan-1-yl)-6-(3-fluoro-5-isobutoxy-phenyl)pyridine-3-carboxamide]: the EC30 is < 3000 nM. For `COc1ccc(Oc2cccc(S(=O)(=O)NC(=O)c3cccnc3N3CC(C)CC3(C)C)n2)cc1` (centres unmarked) [Compound 2239, N—[[6-(4-methoxyphenoxy)-2-pyridyl]sulfonyl]-2-(2,2,4-trimethylpyrrolidin-1-yl)pyridine-3-carboxamide], the EC30 is < 3000 nM. Same read-out and setting: next, `CCOc1cc(C)cc(-c2ccc(C(=O)NS(=O)(=O)c3cccnc3N)c(N3C[C@@H](C)CC3(C)C)n2)n1` [Compound 2256, N-[(2-amino-3-pyridyl)sulfonyl]-6-(6-ethoxy-4-methyl-2-pyridyl)-2-[(4S)-2,2,4-trimethylpyrrolidin-1-yl]pyridine-3-carboxamide]: < 3000 nM. For `C[C@@H]1CN(c2nc(-c3ccccc3O)ccc2C(=O)NS(=O)(=O)c2cccnc2N)C(C)(C)C1` [Compound 2257, N-[(2-amino-3-pyridyl)sulfonyl]-6-(2-hydroxyphenyl)-2-[(4S)-2,2,4-trimethylpyrrolidin-1-yl]pyridine-3-carboxamide], the EC30 is < 3000 nM. In the case of `CC1CN(c2ncccc2C(=O)NS(=O)(=O)c2cccc(N3CCC[C@@H]3C(=O)OC(C)(C)C)n2)C(C)(C)C1` (stereo partly drawn) [Compound 2536, tert-butyl (2R)-1-[6-[[2-(2,2,4-trimethylpyrrolidin-1-yl)pyridine-3-carbonyl]sulfamoyl]-2-pyridyl]pyrrolidine-2-carboxylate], the EC30 is < 3000 nM. Consider `Cc1ccc(-c2ccc(C(=O)NS(=O)(=O)c3cccnc3N)c(N3C[C@@H](C)CC3(C)C)n2)cc1C` [Compound 2017, N-[(2-amino-3-pyridyl)sulfonyl]-6-(3,4-dimethylphenyl)-2-[(4S)-2,2,4-trimethylpyrrolidin-1-yl]pyridine-3-carboxamide], for which the EC30 was < 3000 nM.

Take `CC1CN(c2ncccc2C(=O)NS(=O)(=O)c2cccc(Nc3ccccc3C#N)n2)C(C)(C)C1` (centres unmarked) [Compound 2659, N—[[6-(2-cyanoanilino)-2-pyridyl]sulfonyl]-2-(2,2,4-trimethylpyrrolidin-1-yl)pyridine-3-carboxamide]: the 30% effect concentration (EC30) was in the range of 3000 to 10000 nM. For the compound `C[C@@H]1CN(c2nc(C3CCC(C(F)(F)F)CC3)ccc2C(=O)NS(=O)(=O)c2cccnc2N)C(C)(C)C1` (single isomer, unassigned) [Compound 2077], the concentration for an effect of 30% (EC30) was < 3000 nM. As for `CC1CN(c2ncccc2C(=O)NS(=O)(=O)c2cccc(NCCc3cccs3)n2)C(C)(C)C1` (centres unmarked) [Compound 2146, N—[[6-[2-(2-thienyl)ethylamino]-2-pyridyl]sulfonyl]-2-(2,2,4-trimethylpyrrolidin-1-yl)pyridine-3-carboxamide], the EC30 is < 3000 nM. Consider `C[C@@H]1CN(c2nc(C(C)(C)C)c(C(O)C(O)C3CCCCC3)cc2C(=O)NS(=O)(=O)c2cccc(N)n2)C(C)(C)C1` (some centres unmarked) [Compound 2475], for which the EC30 was < 3000 nM. Regarding `CC(C)c1ccccc1-c1ccc(C(=O)NS(=O)(=O)c2ccc[nH]c2=O)c(N2C[C@@H](C)CC2(C)C)n1` [Compound 2635, 6-(2-isopropylphenyl)-N-[(2-oxo-1H-pyridin-3-yl)sulfonyl]-2-[(4S)-2,2,4-trimethylpyrrolidin-1-yl]pyridine-3-carboxamide], the EC30 is < 3000 nM. The same measure, in the same setting: next, `CC1CN(c2ncccc2C(=O)NS(=O)(=O)c2cccc(N(C)Cc3ccccc3Cl)n2)C(C)(C)C1` (centres unmarked) [Compound 2744]: < 3000 nM; `C[C@@H]1CN(c2nc(-c3cnc(N(C)C)nc3)ccc2C(=O)NS(=O)(=O)c2cccnc2N)C(C)(C)C1` [Compound 2021, N-[(2-amino-3-pyridyl)sulfonyl]-6-[2-(dimethylamino)pyrimidin-5-yl]-2-[(4S)-2,2,4-trimethylpyrrolidin-1-yl]pyridine-3-carboxamide]: 3000 to 10000 nM.

Still in this experiment, the particulars now being: Table 3; compounds of Table 1 as modulators of CFTR activity; protocol not stated.
Regarding `CNc1cccc(S(=O)(=O)NC(=O)c2ccc(C)nc2Oc2c(C)cc(C)cc2C)n1` [Compound 646, 6-methyl-N-[[6-(methylamino)-2-pyridyl]sulfonyl]-2-(2,4,6-trimethylphenoxy)pyridine-3-carboxamide], the EC30 result is “++ (“++” means between 3 uM and 10 uM)”. Regarding `Cc1cc(C)c(Cn2c(C(=O)NS(=O)(=O)c3cccc(N)c3)cc3cc(F)ccc32)c(C)c1` [Compound 153, N-(3-aminophenyl)sulfonyl-5-fluoro-1-[(2,4,6-trimethylphenyl)methyl]indole-2-carboxamide], the EC30 entry is recorded as “+++ (“+++” means <3 uM)”. On to `Cc1cc(C)c(Cc2ccc(C(C)(C)C)nc2C(=O)NS(=O)(=O)c2cccc(N)c2)c(C)c1` [Compound 313, N-(3-aminophenyl)sulfonyl-6-tert-butyl-3-[(2,4,6-trimethylphenyl)methyl]pyridine-2-carboxamide], for which the EC30 entry is on record as “+++ (“+++” means <3 uM)”. As to `CC(C)Oc1ccc(-c2ccc(C(=O)NS(=O)(=O)c3ccn[nH]3)c(N3CCC[C@@H](c4ccccc4)C3)n2)cn1` [Compound 776, 6-(6-isopropoxy-3-pyridyl)-2-[(3S)-3-phenyl-1-piperidyl]-N-(1H-pyrazol-5-ylsulfonyl)pyridine-3-carboxamide], the EC30 result is “+++ (“+++” means <3 uM)”. As for `Cc1cc(C)c(Cn2c(C(=O)NS(=O)(=O)c3cccc(N)c3)cc3cc(C#N)ccc32)c(C)c1` [Compound 291, N-(3-aminophenyl)sulfonyl-5-cyano-1-[(2,4,6-trimethylphenyl)methyl]indole-2-carboxamide], the EC30 result is “++ (“++” means between 3 uM and 10 uM)”. Regarding `Cc1cc(C)c(Oc2nc(-c3cc(F)cc(OC(C)C)c3)ccc2C(=O)NS(=O)(=O)c2ccc[nH]c2=O)c(C)c1` [Compound 645, 6-(3-fluoro-5-isopropoxy-phenyl)-N-[(2-oxo-1H-pyridin-3-yl)sulfonyl]-2-(2,4,6-trimethylphenoxy)pyridine-3-carboxamide], the EC30 entry is “++ (“++” means between 3 uM and 10 uM)”. `Cc1ccccc1N(C)c1nc(C(C)(C)C)ccc1C(=O)NS(=O)(=O)c1cccc(N)c1` [Compound 193, N-(3-aminophenyl)sulfonyl-6-tert-butyl-2-(N,2-dimethylanilino)pyridine-3-carboxamide]: the EC30 result was “+++ (“+++” means <3 uM)”. With `Cc1cccc(C)c1Oc1nc(-c2cc(F)cc(OCC(C)C)c2)ccc1C(=O)NS(=O)(=O)c1cccc(N)n1` [Compound 639, N-[(6-amino-2-pyridyl)sulfonyl]-2-(2,6-dimethylphenoxy)-6-(3-fluoro-5-isobutoxy-phenyl)pyridine-3-carboxamide], the EC30 entry is listed as “+++ (“+++” means <3 uM)”.

With `Cc1cc(C)c(Oc2nc(-n3nc(C(F)(F)F)cc3C)ccc2C(=O)NS(=O)(=O)c2cccc(N)n2)c(C)c1` [Compound 633, N-[(6-amino-2-pyridyl)sulfonyl]-6-[5-methyl-3-(trifluoromethyl)pyrazol-1-yl]-2-(2,4,6-trimethylphenoxy)pyridine-3-carboxamide], the EC30 result is listed as “+++ (“+++” means <3 uM)”.

Regarding `Cc1cc(-c2nc(C(C)(C)C)ccc2C(=O)NS(=O)(=O)c2cccc(N)c2)ccc1F` [Compound 177, N-(3-aminophenyl)sulfonyl-6-tert-butyl-2-(4-fluoro-3-methyl-phenyl)pyridine-3-carboxamide], the 30% effect concentration (EC30) entry was “++ (“++” means between 3 uM and 10 uM)”.

In general, EC30 refers to the concentration needed for an effect of 30%.
